The data set is described as follows: Pharmacokinetic study in rats after oral administration of MOL extract. The data set is classed as in vivo, Sprague-Dawley rats.
Where [1] appears, read: male, Sprague-Dawley, rat, plasma, po, 30 g/kg.

SMILES strings stand for the structures. Some results are limits rather than exact numbers.

Usually half-life stands for how long it takes for the measured level to halve. Read a low half-life as rapid decline. As to `O=C(/C=C/c1ccc(O)c(O)c1)O[C@@H]1C[C@](O)(C(=O)O)C[C@@H](O)[C@H]1O` [Chlorogenic acid], the half-life under setting [1] is 5.06 h.
Usually Cmax stands for the highest concentration seen after dosing. Broadly, the Tmax is the time at which the peak concentration occurs. `O=c1c(O[C@@H]2O[C@H](CO)[C@@H](O)[C@H](O)[C@H]2O)c(-c2ccc(O)c(O)c2)oc2cc(O)cc(O)c12` [Isoquercitrin]: under setting [1], the Cmax was 643 ng/mL and the time of peak concentration (Tmax) was 0.24 h. In addition, the “time over which the substance could be detected in plasma” value (rat plasma, oral MOL extract 30 g/kg) is listed as at most 12 h.

(Values after PMC11255104 (Food Chemistry: X, 2024).)
